Assays:
[1] = system: hypothalamic 5-HT; set-up: method as in PMID 31941059; conditions: cited from earlier work
[2] = system: CTX-TNA2 astrocyte cell line; assay: ROS production by flow cytometry; format: cell-based, rat; conditions: challenged with 300 µM H2O2; 1000 nM CBD, 1 nM CBG; 24 and 48 h
Protocol: The CTX-TNA2 rat astrocytes were purchased from the European Collection of Cell Cultures (ECACC), Sigma-Aldrich, Milan, Italy, and cultured as already indicated. Cells were grown in Dulbecco’s Modified Eagle Medium supplemented with 10% of FBS and penicillin–streptomycin (100 µgmL^−1) (all from EuroClone SpA Life-Sciences-Division, Milan, Italy) and maintained in a humified atmosphere of 5% CO2 at 37 °C. Cells were subcultivated at a ratio of 1.2 to 1.8 and the medium was changed every 3 days. CTX-TNA2 astrocytes were plated in 25 or 75 cm^2 flasks, according to experimental needing and cells between the eight and the 15 passage were used.
When indicated, the cells were treated with H2O2 300 µM for three hours and different concentrations of CBD (1–1000 nM) and CBG (1–1000 nM). […]
Reactive oxygen species (ROS) production was determined as already reported by monitoring by flow cytometry the increase in green fluorescence after labeling the cells (5 × 10^5) with 5 μmolL^−1 of 5-(and-6)-chloromethyl-2′,7′-dichlorodihydrofluorescein diacetate, acetyl ester (CM-H2DCFDA, Molecular Probes, Invitrogen, Life-Sciences-Division, Milano, Italy) for 40 min followed by 20 min of recovery at 37 °C. The increase in green fluorescence, indicating the production of ROS, was detected by a Cytoflex flow cytometer with an FL1 detector in a log mode (Beckmann Coulter, FL, USA). […]

[3] = ABTS scavenging ability test; conditions: mean ± S.D., n = 3
Protocol: For the 2,2′-azino-bis(3-ethylbenzothiazoline) 6-sulfonic acid (ABTS) radical scavenging assay, ABTS+ was produced directly by reacting 7 mM ABTS solution with 2.45 mM potassium persulfate and allowing the mixture to stand for […] in the dark at room temperature. Prior to beginning the assay, ABTS solution was diluted with methanol to an absorbance of 0.700 ± 0.02 at 734 nm. Sample solution was added to ABTS solution (2 mL) and mixed. The sample absorbance was read at 734 nm after a 30 min incubation at room temperature. The ABTS radical scavenging activity was expressed as IC50 values.

[4] = system: Bax; assay: Western blotting analysis of Bax; format: cell-based, rat; conditions: CTX-TNA2 challenged with H2O2, 24 h; 1000 nM CBD, 1 nM CBG
Protocol: […] The stock solutions were diluted in cell medium to the point that the concentration of DMSO in the samples was less than 0.0003%. Therefore, the addition of DMSO to the control samples was not necessary.
The western blowing analysis of Bax and Cyt C was carried out as previously reported. Specifically, CTX-TNA2 lysates (20 µg) were boiled fof 5 min in sample buffer, made of tris-HCl pH 6.8, glycerol, 2-mercaptoethanol, SDS and bromophenol blue. They were then electrophoresed and transferred to nitrocellulose membranes. […] Immunoreactive bands were identified using the ECL detection system (Euroclone, Pero, Milano, Italy) and analyzed by densitometry. Densitometric values were quantified by the CHEMIDOC XRS system and expressed as Integrated Optical Intensity using the QuantiOne 1-D analysis software (Bio-rad Laboratories, Richmond, CA, USA). […] Results are expressed as the mean ± SD.

[5] = molecular target: T1, AChE (acetylcholinesterase) (Electrophorus electricus, UniProt O42275); assay: AChE inhibition, colorimetric cholinesterase assay; format: biochemical, electric eel; conditions: mean ± S.D., n = 3
T1 construct: purchased Sigma Aldrich S.r.l., Milan, Italy Type-VI-S (catalogue number not given)
T1 sequence (O42275 24-633): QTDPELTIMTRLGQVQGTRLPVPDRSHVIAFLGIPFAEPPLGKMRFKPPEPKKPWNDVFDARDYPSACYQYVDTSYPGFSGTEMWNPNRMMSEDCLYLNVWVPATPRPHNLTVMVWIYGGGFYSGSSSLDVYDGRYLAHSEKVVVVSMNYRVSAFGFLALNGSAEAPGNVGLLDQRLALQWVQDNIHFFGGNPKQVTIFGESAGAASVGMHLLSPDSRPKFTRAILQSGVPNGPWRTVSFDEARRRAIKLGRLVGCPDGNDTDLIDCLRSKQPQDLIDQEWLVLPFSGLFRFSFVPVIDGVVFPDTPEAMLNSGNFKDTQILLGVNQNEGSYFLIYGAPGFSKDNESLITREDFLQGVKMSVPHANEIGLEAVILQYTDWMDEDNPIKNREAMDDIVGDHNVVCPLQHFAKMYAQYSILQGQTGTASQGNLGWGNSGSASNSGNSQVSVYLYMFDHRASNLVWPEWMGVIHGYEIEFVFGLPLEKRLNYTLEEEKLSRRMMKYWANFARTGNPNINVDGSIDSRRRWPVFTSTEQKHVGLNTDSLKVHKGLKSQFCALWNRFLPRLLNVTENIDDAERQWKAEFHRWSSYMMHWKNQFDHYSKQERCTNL

[6] = system: rat hypothalamic neurons; set-up: method as in PMID 31941059; conditions: ex vivo model, hydrogen peroxide; cited from earlier work

SMILES | basal hypothalamic 5-HT levels [1] | ROS production [2] | IC50 [3] | Bax expression [4] | IC50 [5] | neuroprotection [6]
C=C(C)[C@@H]1CCC(C)=C[C@H]1c1c(O)cc(CCCCC)cc1O [CBD, Cannabidiol] | stimulate basal hypothalamic 5-HT levels | reduction in ROS production | 1.04 ± 0.01 mM | keep Bax expression at values comparable to the control sample | 1.04 ± 0.02 mM | –
CCCCCc1cc(O)c(C/C=C(\C)CCC=C(C)C)c(O)c1 [CBG, cannabigerol] | – | reduction in ROS production | 1.03 ± 0.01 mM | expression does not differ from the control sample | 1.15 ± 0.03 mM | neuroprotection only at low concentrations
